How the values were obtained:
[1] = ABTS radical cation decolorization assay; conditions: 6 min incubation, 734 nm; mean ± SD
Method: The antioxidant capacity of flavonoids was measured in three separate tests: ABTS, DPPH, and ferric ion reducing antioxidant power (FRAP) assays (ABTS, DPPH, and FRAP reagents from Sigma-Aldrich). All tested compounds were dissolved in DMSO. All determinations were performed in triplicate. Standard curves were prepared for all assays using different concentrations of Trolox (6-hydroxy-2,5,7,8-tetramethylchroman-2-carboxylic acid) (Sigma-Aldrich). Trolox is a water-soluble analogue of vitamin E with high antioxidant activity, commonly used as a control and a reference in studies of antioxidant activity. The results were expressed as the equivalent of μmol Trolox per μmol of the test compound. The absorbance was measured using a UV-2401 PC spectrophotometer (Shimadzu, Kyoto, Japan). Concentrations of the tested samples were in the range from 50 µg/mL to 10 mg/mL.
The radical cation scavenging capacity of the tested compounds was examined against ABTS^+ (2,2’-azino-bis(3-ethylbenzo-thiazoline-6-sulfonic acid) according to the procedure described by Re et al. with some modifications. The test sample (30 μL) of known concentration was mixed in a polystyrene cuvette with 3 mL of ABTS solution with a measured absorption of 0.700 at a wavelength of λ = 734 nm. After 6 min of incubation, the absorption of samples was recorded. The ABTS reagent was freshly prepared before each experiment.

[2] = Stability of flavonoids before administration to the cell cultures (diluted in RPMI 1640/Opti-MEM medium), HPLC; type: physicochemical; conditions: 100 µg/mL, medium with 2 mM L-glutamine, 5% fetal bovine serum, penicillin, streptomycin; 3 h incubation
Method: Tested compounds were dissolved in DMSO and then diluted in a 1:1 (v/v) mixture of RPMI 1640 (HIIET, PAS, Wroclaw, Poland) and Opti-MEM (Gibco, Scotland, UK) medium supplemented with 2 mM L-glutamine (Sigma-Aldrich, Poznan, Poland), 5% fetal bovine serum (GE Healthcare), 100 units/mL penicillin (Polfa Tarchomin S.A., Warsaw, Poland), and 100 µg/mL streptomycin (Sigma-Aldrich, Poznan, Poland). The antiproliferative effects of the flavonoids were examined after 72 h of exposure of the cultured cells to varying concentrations of the tested agents (from 0.1 to 100 μg/mL) using the MTT (for MV-4-11 cells) or SRB assay described below. Cisplatin (chemotherapy drug used to treat a number of cancers) was used as a positive control. The results are presented as an inhibitory concentration 50 (IC50), which is the concentration of the tested agent that inhibits proliferation of the cell population by 50%. IC50 values for each experiment were calculated separately.
Flavonoids were dissolved (as described in Section 2.4) to the concentration of 100 µg/mL. The solutions corresponding to the solutions before the administration to the cell cultures were incubated in 96-well plates for 3 h and transferred to microtubes containing 400 µL of cold methanol (−20 °C) and kept at −20 °C for 1 h. After centrifugation at 12,000× g for 10 min, samples were analyzed by HPLC. Control experiments were also carried out to determine the stability of flavonoids in DMSO under analogous conditions.

Row | stability after dilution with 1:1 RPMI 1640/Opti-MEM medium [2] | Structure (SMILES) | TEAC ABTS [1]
1 | stable | O=C1C[C@@H](c2ccc(O)cc2)Oc2cc(O)cc(O)c21 [Compound 6, naringenin] | 0.347 ± 0.020 µmol trolox per µmol of tested
2 | complete decomposition | O=c1cc(-c2ccc(O)cc2)oc2c(O)c(O)cc(O)c12 [Compound 10, 8-hydroxyapigenin] | 10.184 ± 1.768 µmol trolox per µmol of tested
3 | stable | O=c1cc(-c2ccc(O)cc2)oc2cc(O)cc(O)c12 [Compound 2, apigenin] | 0.250 ± 0.014 µmol trolox per µmol of tested
